Experiments:
[1] = test system: rabbit gastric lipase (RGL) followed by porcine pancreatic lipase (PPL); assay: Sequential in vitro digestion SGF followed by SIF, pH-stat; assay type: in vitro ADME
[2] = target: T1, porcine pancreatic lipase (PPL) (Sus scrofa, UniProt P00591); assay: In vitro digestion in simulated intestinal fluid (SIF), pH-stat; assay type: in vitro ADME; settings: SIF alone; 200 mg fat emulsion, pH 6.8, 37° C.
T1 construct: by porcine pancreatic lipase (from pancreatin); purchased Sigma-Aldrich P7585; host or cells: porcine pancreas extract (pancreatin)
T1 sequence (P00591 1-450): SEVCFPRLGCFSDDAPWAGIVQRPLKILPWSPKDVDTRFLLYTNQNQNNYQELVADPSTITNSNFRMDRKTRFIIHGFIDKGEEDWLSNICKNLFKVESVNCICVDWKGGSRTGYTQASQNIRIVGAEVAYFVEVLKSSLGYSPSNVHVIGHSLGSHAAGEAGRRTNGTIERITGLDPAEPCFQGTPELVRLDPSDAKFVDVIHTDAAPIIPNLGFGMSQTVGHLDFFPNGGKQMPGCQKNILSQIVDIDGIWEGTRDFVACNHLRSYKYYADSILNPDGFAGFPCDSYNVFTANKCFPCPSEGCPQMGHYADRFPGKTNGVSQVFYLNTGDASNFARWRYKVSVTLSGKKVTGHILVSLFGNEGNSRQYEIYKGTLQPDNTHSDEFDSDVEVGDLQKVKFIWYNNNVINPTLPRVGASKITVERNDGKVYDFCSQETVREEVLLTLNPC
T1 sequence (P02703 23-112 partner): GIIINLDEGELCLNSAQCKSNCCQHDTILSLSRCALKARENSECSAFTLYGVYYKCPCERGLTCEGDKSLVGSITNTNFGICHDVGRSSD

- initial lipolysis rate in SIF compartment ([1]; SGF-SIF sequential digestion, 200 mg fat emulsion): 44.1 ± 8.8 µmol/min
- hydrolysis in the stomach (gastric lipolysis), in words ([1]; gastric compartment of the model): extensive hydrolysis
- lipolysis by gastric lipase ([1]; indicated by decreased total fatty acid release in SIF after RGL pre-exposure): ~60%
- initial rate of lipolysis [2]: 223 ± 59 µmol/min
Compound: CCCC(=O)OCC(COC(=O)CCC)OC(=O)CCC [tributyrin]
